Read-outs that look alike come from different tables or passages of the source.
Legend:
[1] = assay type: in vivo; details: for Antioxidant level in Cortical/Epithelial Layer (C) of dog lens / Antioxidant level in Nuclear Layer (N) of dog lens: lenses of seven dogs
Procedure: Eye samples were collected from seven (7) dogs. Eye balls were removed within 1 hour of death at necropsy, stored in individual containers at 4° C., and stored on wet ice for dissection within one day. The eyes were dissected to take out lenses. The lenses were separated into two layers: (1) an outer, soft cortical/epithelial layer and (2) an inner, hard nuclear layer. The layers were analyzed for carotenoids, vitamin C, and vitamin E following standard procedures given in Craft N E, Haitema T B, Garnett K M, Fitch K A, Dorey C K. Carotenoid, tocopherol, and retinol concentrations in elderly human brain. J Nutr. Health Aging 2004; 8:156-62.

[2] = previous studies, humans regularly consume β-carotene in their diets; cited from earlier work

Row | Compound | β-Carotene concentration in lens layer ([1]; Dog 1, BEA, M/n, age 15.50, layer N) | β-Carotene concentration in lens layer ([1]; Dog 2, BEA, M/n, age 13.55, layer C) | β-Carotene concentration in lens layer ([1]; Dog 2, BEA, M/n, age 13.55, layer N) | β-Carotene concentration in lens layer ([1]; Dog 3, LAB, F/s, age 13.41, layer C) | β-Carotene concentration in lens layer ([1]; Dog 3, LAB, F/s, age 13.41, layer N) | β-Carotene concentration in lens layer ([1]; Dog 4, LAB, M/n, age 14.22, layer C) | β-Carotene concentration in lens layer ([1]; Dog 4, LAB, M/n, age 14.22, layer N) | β-Carotene concentration in lens layer ([1]; Dog 5, Man T, F/s, age 12.79, layer C) | β-Carotene concentration in lens layer ([1]; Dog 5, Man T, F/s, age 12.79, layer N) | β-Carotene concentration in lens layer ([1]; Dog 6, SIB HUSKY, M/n, age 6.10, layer C) | β-Carotene concentration in lens layer ([1]; Dog 6, SIB HUSKY, M/n, age 6.10, layer N) | β-Carotene concentration in lens layer ([1]; Dog 7, LAB, F/s, age 9.31, layer C) | β-Carotene concentration in lens layer ([1]; Dog 7, LAB, F/s, age 9.31, layer N) | cortical layer samples that accumulated β-carotene ([1]; dog lens, cortical layer, seven dogs) | nuclear layer samples that accumulated β-carotene ([1]; dog lens, nuclear layer, seven dogs) | Antioxidant level in Cortical/Epithelial Layer (C) of dog lens [1] | Antioxidant level in Nuclear Layer (N) of dog lens ([1]; nuclear layer) | detection or accumulation in human lenses [2]
1 | CC1=C(/C=C/C(C)=C/C=C/C(C)=C/C=C/C=C(C)/C=C/C=C(C)/C=C/C2=C(C)CCCC2(C)C)C(C)(C)CCC1 [β-Carotene, β-carotene] | 0.79 ng/g | 1.06 ng/g | 0.60 ng/g | 0.73 ng/g | 1.26 ng/g | 0.71 ng/g | 0.79 ng/g | 1.35 ng/g | 1.60 ng/g | 4.26 ng/g | 8.17 ng/g | 2.35 ng/g | 5.99 ng/g | six out of seven cortical layer samples accumulated | all nuclear layer samples accumulated | 0.00174 µg/g | 0.00274 µg/g | not detected or accumulated in human lenses
2 | vitamin E |  |  |  |  |  |  |  |  |  |  |  |  |  |  |  | 0.93 µg/g | 0.64 µg/g | 
3 | O=C1O[C@H]([C@@H](O)CO)C(O)=C1O [Vitamin C, vitamin C] |  |  |  |  |  |  |  |  |  |  |  |  |  |  |  | 112.38 µg/g | 23.59 µg/g | 
